Tests used:
MSI001-Amp^r bacteria = experiment: Growth of ampicillin-resistant MSI001 bacteria; type: cell-based, Escherichia coli; conditions: 1×10^3 CFU/ml, peptide 1 μmol/L, 37°C, 3 hours, colony count, n=3
Experimental: (§1) Pseudomonas aeruginosa (ATCC27853) was purchased from American Type Culture Collection (ATCC) and cultured in Luria Broth (LB) medium with shaking at 37 °C. For construction of ampicillin-resistant MSI001 strain (MSI001-Amp^r), the pET14b plasmid carrying Amp^r marker gene was introduced into the wild type MSI001 strain. The MSI001-Amp^r strain was cultured in LB medium supplemented with Ampicillin of 100 µg/ml at 37 °C.
(§2) Figure S4. Inhibitory effect of LL37 and VTK-LL37 fusion peptides on bacterial growth. a Effect of VTK-LL37 on the growth of Ampicillin resistant (Amp^r) MSI001 bacteria. The bacterial strain MSI001 was transfected with pET14b plasmid to produce an Ampicillin resistant (Amp^r) MSI001 strain. The VTK-LL37 or LL37 peptide was added to the cultured MSI001-Amp^r bacteria (1×10^3 CFU/ml) with a final concentration of 1 μmol/L. After incubation with the VTK-LL37 or LL37 peptides at 37°C for 3 hours, bacterial colonies were counted. b Effect of VTK-LL37 on the growth of Pseudomonas aeruginosa. The bacterial colonies of Pseudomonas aeruginosa were counted as above. […]

E. coli MSI001 = experiment: In vivo antibacterial assay (blood CFU); design: species or system C57BL/6 mice; conditions: MSI001 6 × 10^6 CFU/g i.p.; peptide 0.2 nmol/g tail vein 1 h later; blood CFU at 12 h; n = 8
Text: Wild-type C57 mice were intraperitoneally injected with MSI001 bacteria (6 × 10^6 CFU/g body weight) to reproduce a sepsis model. […] Normal saline (NS) was used as control. […] One hour after CLP modeling, the mice were intravenously injected with LL37 or VTK-LL37 peptide at a dosage of 0.2 nmol/g body weight. Equal volume of normal saline (NS) was used as control. […] The mice were intraperitoneally injected with MSI001 bacteria. One hour later, the mice were subjected to tail vein injection (TVI) with VTK-LL37 (VTK-LL37 group), LL37 (LL37 group) or an equivalent volume of NS (sepsis group). Wild-type mice without modeling were used as controls (control group). The blood bacteria were quantitated as colony forming units (CFU) 12 h after injection of bacteria. n = 8. *P < 0.05, compared to control; ^#P < 0.05, compared to sepsis group^; ΔP < 0.05, compared to LL37 group. Results are expressed as the median with range. d Suppression of VTK-LL37 on the production of HMGB1 in the blood of septic mice. […] Twelve hours after bacterial injection, HMGB1 in the serum was quantitated by ELISA. n = 8. *P < 0.05, compared to control; ^#P < 0.05, compared to sepsis group; ^ΔP < 0.05, compared to LL37 group^. Results are expressed as the mean ± SD. e, f Protective effect of VTK-LL37 against organ damage in mice subjected to bacterial injection. […]

[1] = system: Pseudomonas aeruginosa (ATCC27853); experiment: Growth of Pseudomonas aeruginosa; type: cell-based; conditions: peptide 1 μmol/L, 37°C, 3 hours, colony count, n=3
Experimental: as §1, §2

CVTKLGSLCVPGVGLLGDFFRKSKEKIGKEFKRIVQRIKDFLRNLVPRTES [VTK-LL37]
inhibitive effect on growth of ampicillin-resistant MSI001 (MSI001-Amp^r bacteria): more significant inhibitive effect on the bacterial growth of the ampicillin-resistant MSI001 bacteria in comparison with LL37 | suppression of bacterial growth in blood of septic mice (E. coli MSI001): stronger capability to suppress the bacterial growth of E. coli MSI001 in the blood of septic mice than LL37 | inhibitory effect on growth of Pseudomonas aeruginosa [1]: showed inhibitory effect on the growth of Pseudomonas aeruginosa

— article PMC9309159, “Identification of heptapeptides targeting a lethal bacterial strain in septic mice through an integrative approach” (Signal Transduction and Targeted Therapy, 2022)
